Experimental findings from ChEMBL document CHEMBL6127044, “An insight into G-quadruplexes: Identification and potential therapeutic targets in livestock viruses” (Eur J Med Chem, 2024) are described below.

Series [1] has as its system Vero. The series can be described thus: Cytotoxicity against African green monkey Vero cells at 50 uM incubated for 24 hrs by MTT assay relative to control. Type of series: toxicity, cell-based. The settings on record: chlorocebus sabaeus. For orientation: Formazan colour is commonly taken as a measure of viable cells.
Series [2] deals with Porcine epidemic diarrhea virus. The series can be described thus: Antiviral activity against Porcine epidemic diarrhea virus infected in African green monkey Vero E6 cells assessed as inhibition of viral replication at 25 uM relative to control. The series is classed as functional. The settings on record: Vero C1008.

In the case of `NCCOc1cc(C(=O)Nc2cc(OCCN)c3ccccc3n2)nc(C(=O)Nc2cc(OCCN)c3ccccc3n2)c1` [PYRIDOSTATIN], the Activity in series [1] was determined as 80%. Moreover, the inhibition at 25 µM in series [2] came out at 99%. `C[n+]1cc(NC(=O)c2ccc3ccc4ccc(C(=O)Nc5cc6ccccc6[n+](C)c5)nc4c3n2)cc2ccccc21` registered an Activity in series [1] of 80%. For the compound `C[n+]1ccc(-c2c3nc(c(-c4cc[n+](C)cc4)c4ccc([nH]4)c(-c4cc[n+](C)cc4)c4nc(c(-c5cc[n+](C)cc5)c5ccc2[nH]5)C=C4)C=C3)cc1` [TMPYP4 CHLORIDE], in series [2], the inhibition at 25 µM is 99%.

As usually defined, the inhibition is the share of the control response that was lost under treatment.
